In publication PMC6178348, “Intranasal delivery of a Fas-blocking peptide attenuates Fas-mediated apoptosis in brain ischemia” (Scientific Reports, 2018):
Peptide text beside a SMILES is read from it.

Key:
[1] = tested on: normal rat brain tissue; assay: H&E and TUNEL staining of brain sections of normal non-ischemic rats after IN inoculation; format: in vivo; conditions: H&E and TUNEL stained sections, N = 6 per group
Procedure: Brain pathology was analyzed by incubating 2 mm thick brain slices in 2% 2,3,5-triphenyltetrazolium chloride (TTC staining, Sigma) and measuring the infarct volume after fixation using Image J software as previously described. Paraffin-embedded brain sections were also subjected to H&E staining and immunohistochemistry after with an antibody to rat Fas (ab82419, Abcam). Apoptosis in de-paraffinized, rehydrated brain sections was analyzed by TUNEL staining using the In Situ Cell Death Detection Kit (Roche, Germany) in accordance with the manufacturer’s instructions.
(A) Regional cerebral blood flow (rCBF) in rat’s subject to MCAO. The cerebral blood flow was measured during ligation of CCA, occlusion of MCA and after reperfusion (N=6 per group) and a 9 fold reduction was considered as a confirmation of ischemic stroke injury. (B) Bio-distribution of IN inoculated ctr-FBP-A488 or FBP-A488 at the indicated time points in normal non-ischemic rats that constitute a control group (N=3 per group). Mock treated animals were inoculated with PBS. (C) Representative hematoxylin and eosin (H&E) (upper panel) and TUNEL (lower panel) stained paraffin embedded sections from normal rat inoculated with PBS (Mock), ctr-FBP or FBP […]
change in tissue morphology and toxicity. Scale bare represents 100µm. ctr-FBP-A488- Alexa488 labeled control peptide, FBP-A488- Alexa488 labeled Fas-blocking peptide.

[2] = Brain biodistribution of intranasally inoculated A488-labeled peptide in normal and MCAO rats; format: in vivo, Sprague–Dawley rats; conditions: intranasal (POD), MCAO rats; fluorescence imaging
Description: Figure 3 IN delivered FBP localizes to Fas-expressing brain regions in the MCAO rat model of focal ischemia. (A) Immunohistochemistry for Fas expression in ischemic rat brain after MCAO. Representative images of deparaffinized coronal brain sections from normal or ischemic rats stained with anti-Fas antibody at the designated times post-MCAO are shown. Representative images (upper panel) and cumulative data (lower panel) depicting fluorescence intensities measured in arbitrary pixel values relative to that at the 12 h ‘normal’ rats. Scale bar = 50 µm. The data represent mean ± SD (N = 6 per group). *P < 0.05 at individual time-points, Mann-Whitney U test, ^###P < 0.001; Cumulative data, Two-way ANOVA. […] Representative images (upper panel) and cumulative data (lower panel) depicting fluorescence intensities measured in arbitrary pixel values relative to and normalized based on fluorescence intensities in normal group. […]
For bio-distribution studies, A488-conjugated FBP was intranasally (IN) administered at 500 μg (1.4 mg/kg) in a final volume of 50 μL (25 μL in each nare) using the POD at 12 h post-MCAO and fluorescence analyzed at designated time points in isolated organs using Image Station 4000 mm (Carestream Rochester, NY) or by flow cytometry of single cell suspensions on a FACS Calibur™ (BD Bioscience, San Jose, CA) and analyzed using the Flowjo software. […]

**Q.** With `N[C@@H](Cc1ccc(O)cc1)C(=O)N[C@@H](CS)C(=O)N[C@@H](CC(=O)O)C(=O)N[C@@H](CCC(=O)O)C(=O)N[C@@H](Cc1c[nH]cn1)C(=O)N[C@@H](Cc1ccccc1)C(=O)N[C@@H](CS)C(=O)N[C@@H](Cc1ccc(O)cc1)C(=O)O` [FBP] (H-YCDEHFCY-OH) as the compound, how does the “Change in brain tissue morphology and toxicity in normal rats” value [1] read?
**A.** did not shows any change in tissue morphology and toxicity

**Q.** For `CC(C)[C@H](NC(=O)[C@@H](NC(=O)[C@H](CO)NC(=O)[C@H](CC(N)=O)NC(=O)[C@H](CS)NC(=O)[C@@H](N)Cc1ccc(O)cc1)[C@@H](C)O)C(=O)N[C@@H](CS)C(=O)N[C@@H](Cc1ccc(O)cc1)C(=O)O` [ctr-FBP] (H-YCNSTVCY-OH), which “Clearance of peptide from brain after IN delivery” value [2] is on record?
**A.** cleared within a few hours of treatment

**Q.** And the “Change in brain tissue morphology and toxicity in normal rats” value [1]?
**A.** did not shows any change in tissue morphology and toxicity
